Results: patent US7136698B2 (priority 1996, dated 2006)

Assay: Current density and goserelin flux: constant current electrotransport delivery
Format: in vivo, human
Procedure: This study was undertaken to evaluate the relationship between current density and drug flux in the transdermal electrotransport delivery of goserelin. The study involved the application of electrotransport devices, applying constant current, to 12 normal male volunteers for a duration of 8 hours.
The two electrotransport treatment regimens in this study differed only in applied current density levels. The electrotransport devices delivered goserelin through the skin from polyvinyl alcohol (PVOH)-based donor hydrogels having a skin-contact surface area of 4 cm^2. The gels contained an aqueous goserelin solution. The current density levels used in this study were […]. After an 8 hour treatment period, the electrotransport devices were removed. The skin site was then washed to remove any residual goserelin. All 12 volunteers received each treatment seven days apart.
For each treatment, seven blood samples were taken over a 24 hour period commencing with the application of current from the electrotransport devices. Serum goserelin concentrations from each patient were used to calculate mean drug flux and the mean total amount of drug delivered.

CC(C)C[C@H](NC(=O)[C@@H](COC(C)(C)C)NC(=O)[C@H](Cc1ccc(O)cc1)NC(=O)[C@H](CO)NC(=O)[C@H](Cc1c[nH]c2ccccc12)NC(=O)[C@H](Cc1cnc[nH]1)NC(=O)[C@@H]1CCC(=O)N1)C(=O)N[C@@H](CCCNC(=N)N)C(=O)N1CCC[C@H]1C(=O)NNC(N)=O [goserelin]
average transdermal goserelin flux (applied current density 50 μA/cm^2, 8 hours): 5.8 µg/h
average transdermal goserelin flux (applied current density 100 μA/cm^2, 8 hours): 21.6 µg/h
increase in drug flux (current density rises from 50 to 100 μA/cm^2): almost four-fold increase
